US9884842B2, “Combretastatin analogs” (The Board of Trustees of the University of Arkansas, priority 2013, dated 2018)

How the values were obtained:
NCI-H522 = test: NCI growth inhibition and cytotoxicity screen, Lung Cancer panel; type: cell-based; details: Homo sapiens, Table 2, cell line NCI-H522 (Lung Cancer)
SF-295 = test: NCI growth inhibition and cytotoxicity screen, CNS Cancer panel; type: cell-based; details: Homo sapiens, Table 2, cell line SF-295 (CNS Cancer)
HL-60(TB) = test: cells; details: Homo sapiens
OVCAR-3 = test: cells; details: Homo sapiens
CCRF-CEM = test: NCI growth inhibition and cytotoxicity screen, Leukemia panel; details: Homo sapiens
K-562 = test: as above; details: Homo sapiens
RPMI-8226 = test: as above; details: Homo sapiens
LOX-IMVI = test: NCI growth inhibition and cytotoxicity screen, Melanoma panel; details: Homo sapiens
MDA-MB-435 = test: as above; details: Homo sapiens
SK-MEL-2 = test: as above; details: Homo sapiens
UACC-257 = test: as above; details: Homo sapiens
SF-539 = test: NCI growth inhibition and cytotoxicity screen, CNS Cancer panel; details: Homo sapiens
SNB-19 = test: as above; details: Homo sapiens
SNB-75 = test: as above; details: Homo sapiens
U251 = test: as above; details: Homo sapiens
A549/ATCC = test: NCI growth inhibition and cytotoxicity screen, Lung Cancer panel; details: Homo sapiens
HOP-92 = test: as above; details: Homo sapiens
NCI-H226 = test: as above; details: Homo sapiens
NCI-H23 = test: as above; details: Homo sapiens
HCC-2998 = test: NCI growth inhibition and cytotoxicity screen, Colon Cancer panel; details: Homo sapiens
A498 = test: NCI growth inhibition and cytotoxicity screen, Renal Cancer panel; details: Homo sapiens
RXF 393 = test: as above; details: Homo sapiens
SN12C = test: as above; details: Homo sapiens
UO-31 = test: as above; details: Homo sapiens
MDA-MB-231/ATCC = test: NCI growth inhibition and cytotoxicity screen, Breast Cancer panel; details: Homo sapiens
BT-549 = test: as above; details: Homo sapiens
T-47D = test: as above; details: Homo sapiens, T47D
IGROV1 = test: NCI growth inhibition and cytotoxicity screen, Ovarian Cancer panel; details: Homo sapiens
OVCAR-5 = test: as above; details: Homo sapiens
SK-OV-3 = test: as above; details: Homo sapiens
DU-145 = test: NCI growth inhibition and cytotoxicity screen, Prostate Cancer panel; details: Homo sapiens
[1] = read-out: LC50 (the source's name)

Structure (SMILES): COc1cc(/C(C#N)=C/c2ccc3ccccc3n2)cc(OC)c1OC [PNR-4-90, (Z)-3-(quinolin-2-yl)-2-(3,4,5-trimethoxyphenyl)acrylonitrile]
- GI50 (NCI-H522): 37.2 nM
- CC50 (NCI-H522; [1]): > 100000 nM
- GI50 (SF-295): 277 nM
- CC50 (SF-295; [1]): > 100000 nM
- GI50 (HL-60(TB); HL-60): 223 nM
- CC50 (HL-60(TB); HL-60, read-out: LC50): > 100000 nM
- GI50 (OVCAR-3; OVCAR-3): 163 nM
- CC50 (OVCAR-3; OVCAR-3, read-out: LC50): 54900 nM
- GI50 (CCRF-CEM): 248 nM
- CC50 (CCRF-CEM; read-out: LC50): > 100000 nM
- GI50 (K-562; K562): 80 nM
- CC50 (K-562; K562, read-out: LC50): > 100000 nM
- GI50 (RPMI-8226; RPMI-8226): 297 nM
- CC50 (RPMI-8226; RPMI-8226, read-out: LC50): > 100000 nM
- GI50 (LOX-IMVI): 766 nM
- CC50 (LOX-IMVI; read-out: LC50): > 100000 nM
- GI50 (MDA-MB-435; MDA-MB-435): 33 nM
- CC50 (MDA-MB-435; MDA-MB-435, read-out: LC50): 60000 nM
- GI50 (SK-MEL-2; SK-MEL-2): 483 nM
- CC50 (SK-MEL-2; SK-MEL-2, read-out: LC50): > 100000 nM
- GI50 (UACC-257; UACC-257): 761 nM
- CC50 (UACC-257; UACC-257, read-out: LC50): > 100000 nM
- GI50 (SF-539; SF-539): 197 nM
- CC50 (SF-539; SF-539, read-out: LC50): 14900 nM
- GI50 (SNB-19; SNB-19): 578 nM
- CC50 (SNB-19; SNB-19, read-out: LC50): > 100000 nM
- GI50 (SNB-75; SNB-75): 182 nM
- CC50 (SNB-75; SNB-75, read-out: LC50): 98800 nM
- GI50 (U251; U-251): 355 nM
- CC50 (U251; U-251, read-out: LC50): 90500 nM
- GI50 (A549/ATCC; A549): 375 nM
- CC50 (A549/ATCC; A549, read-out: LC50): > 100000 nM
- GI50 (HOP-92; HOP-92): 736 nM
- CC50 (HOP-92; HOP-92, read-out: LC50): > 100000 nM
- GI50 (NCI-H226; NCI-H226): 4780 nM
- CC50 (NCI-H226; NCI-H226, read-out: LC50): > 100000 nM
- GI50 (NCI-H23; NCI-H23): 751 nM
- CC50 (NCI-H23; NCI-H23, read-out: LC50): > 100000 nM
- GI50 (HCC-2998; HCC 2998): 610 nM
- CC50 (HCC-2998; HCC 2998, read-out: LC50): > 100000 nM
- GI50 (A498; A498): 295 nM
- CC50 (A498; A498, read-out: LC50): > 100000 nM
- GI50 (RXF 393; RXF 393): 271 nM
- CC50 (RXF 393; RXF 393, read-out: LC50): > 100000 nM
- GI50 (SN12C): 627 nM
- CC50 (SN12C; read-out: LC50): > 100000 nM
- GI50 (UO-31; UO-31): 762 nM
- CC50 (UO-31; UO-31, read-out: LC50): > 100000 nM
- GI50 (MDA-MB-231/ATCC; MDA-MB-231): 943 nM
- CC50 (MDA-MB-231/ATCC; MDA-MB-231, read-out: LC50): > 100000 nM
- GI50 (BT-549; BT-549): 315 nM
- CC50 (BT-549; BT-549, read-out: LC50): > 100000 nM
- GI50 (T-47D): 4760 nM
- CC50 (T-47D; read-out: LC50): > 100000 nM
- GI50 (IGROV1; IGROV-1): 846 nM
- CC50 (IGROV1; IGROV-1, read-out: LC50): > 100000 nM
- GI50 (OVCAR-5; OVCAR-5): 580 nM
- CC50 (OVCAR-5; OVCAR-5, read-out: LC50): > 100000 nM
- GI50 (SK-OV-3; SK-OV-3): 524 nM
- CC50 (SK-OV-3; SK-OV-3, read-out: LC50): > 100000 nM
- GI50 (DU-145; DU-145): 446 nM
- CC50 (DU-145; DU-145, read-out: LC50): > 100000 nM
